Assay results published in the NIST ThermoML archive (doi:10.1021/je201391j).

Settings: 101 kPa, Liquid mixture 1, Pendant Drop method

CCCC[N+]1(C)CCCC1.O=S(=O)([N-]S(=O)(=O)C(F)(F)F)C(F)(F)F + CCCCO
Settings	interfacial tension [mN/m]
293.15 K	0.666
295.65 K	0.576
298.15 K	0.443
300.65 K	0.368
303.15 K	0.276
305.65 K	0.163
